7 substances from US20220073613A1, “ACTIVATABLE MASKED ANTI-CTLA4 BINDING PROTEINS” (Xilio Development, Inc., priority 2018, published 2022) can be followed below.

Entries after “also recorded” stand apart in the source; their conditions may differ.

One test concerns 9D9 antibody. Nature of the test: Surface Plasmon Resonance of masking peptide binding to 9D9 antibody. Particulars: SPR, reference channel. The method, then:
FIGS. 1A and 1B is a series of graphs showing in vitro analyses of anti-CTLA4 antibody occlusion by a masking peptide. Surface plasmon resonance (SPR) was performed to examine A) kinetics and B) affinity between 9D9 antibody (ligand) and masking peptide […] (analyte). Analytes were run in increasing concentrations of 2-fold serial dilutions from 0.1 to 50 μM at 37° C. Reference-subtracted response was plotted. SPR was performed three times and representative traces from one experiment are shown.
Surface Plasmon Resonance was performed on a GE Biacore T200 instrument at 37° C. The 9D9 antibody and isotype control (reference channel) were coupled at 100 RU immobilization level to CM5 chip (GE Healthcare). Peptides were synthesized and diluted into HBS-EP+ running buffer (GE Healthcare). The binding data were analyzed using Biacore Evaluation Software, version 3.0.

The test system of the next test is NAT conditioned media. The test is described as follows: AMSP-MS kinetic analysis of AK10 peptides, NAT. In kind it is biochemical, human. The method, then: (§1) Ten sequences (AK10) shown in Table 19 were analyzed via AMSP-MS. These sequences were slightly modified from the original sequences to generate mass spectrometry-compatible peptides (in some cases adding basic residues to add positive charge) and spacing residues (GG) to produce longer ˜14-mer peptides. The peptides were prepared at a 500 nM final concentration in the AMSP-MS reaction. The AK10 library was also separately analyzed by LC-MS/MS for chemical validation of the peptide species. The AMSP-MS analysis was performed under standard substrate specificity profiling conditions, sampling time points during the reaction incubation at 0, 15, 60, 240 and 1200 min. Peptides were quantified by mass spectrometric label-free quantitation from the MS1 precursor ion peak areas for each peptide species. Enzyme progress curves were modeled in GraphPad Prism software v 8.0 and data were fitted using non-linear least squares fitting to the first order kinetic equation: where Y=percent product formation, Kobs is the observed rate, and t=time. In Michaelis-Menten kinetics, the observed rate Kobs is a function of the enzyme concentration and catalytic efficiency (kcat/KM). In this analysis of an enzyme mixture, Kobs was used to rank product cleavages.

The subject of another test is MC38 conditioned media. Nature of the test: AMSP-MS kinetic analysis of AK10 peptides, MC38. In kind it is biochemical, mouse. The conditions noted are these: MC38 serum-free conditioned media. The method, then:
as §1

The subject of the next test is tumor conditioned media. Nature of the test: AMSP-MS kinetic analysis of AK10 peptides, patient tumor. In kind it is biochemical, human. The method, then: as §1
For a further test, the system named is MB49 tumors. Nature of the test: MB49 murine bladder tumor model, efficacy and pharmacodynamics. The conditions noted are these: mouse, in vivo. The arrangement: species or system C57/BL6-huCTLA4 mice. The method, then:
Efficacy and pharmacodynamics (PD) of anti-CTLA4 antibodies were assessed using the MB49 murine bladder tumor model. Efficacy was assessed by administering each test antibody (RSV-m control antibody, ipilimumab, Antibody 2-6, Antibody 2-14, and Antibody 2-15) and then assessing tumor volume and body weight. The anti-RSV control antibody contains S239D and I332E mutations (RSV-m control antibody). Peripheral immunophenotyping was also carried out on day 5, which assessed the percentage of CD4+Ki67+ cells and the percentage of CD4+ICOS+ cells in the peripheral blood on day 5 following administration. As used herein, dosing in mg/kg is also referred to as “mpk.” MB49 cells were inoculated subcutaneously into C57/BL6-huCTLA4 mice. Treatment started when the tumors reached approximately 350 mm^3. […]
Pharmacodynamics is assessed by administering antibody to each of five cohorts of mice, with dosing (mg/kg) as shown in Table 16. Immunophenotyping among other readouts are performed in the tumor, liver, spleen, and blood. T cells are assessed by measuring Foxp3+CD25+ cells as a percentage of CD4+ cells, and CD8+ cells are measured as a percentage of CD45+ cells. Cleavage and drug levels in tumors, liver, kidney, spleen, and plasma is also assessed.

For the substance CNLIVEGHC, the “binding to isotype control antibody” value in the test with 9D9 antibody is given as “did not bind”.

Consider LSGRSNAMPYDLYHP [AK-09], for which the “ranking as substrate (relative efficiency)” value with NAT conditioned media was “better performing substrates”; in the test on MC38 conditioned media it was “best substrates”.

For the substance MPYDLYHPRQARVVG [AK-10], the “ranking as substrate (relative efficiency)” value was “better performing substrates; also recorded: most efficient NAT substrate” with NAT conditioned media and “best substrates” in the test on MC38 conditioned media.

On to RGGDSGGFMLTGGK [AK-05], for which, in the test on NAT conditioned media, the “ranking as substrate (relative efficiency)” value is listed as “weaker substrates”.

As to RGGMPYDLYHPGGK [AK-04], the “ranking as substrate (relative efficiency)” value in the test with NAT conditioned media is reported as “better performing substrates”; in the test with tumor conditioned media, “top cleavages”.

As for RGGVPLSLYSGGGK [AK-03], in the test with tumor conditioned media, the “ranking as substrate (relative efficiency)” value was “top cleavages”.

On to ipilimumab [reference compound], for which, in the test on MB49 tumors, the “Regulatory T cell depletion and CD8+ T cell activation in the tumor microenvironment” value was “not”.
